The compounds below were run against PD-L1 His protein / PD-1 Fc protein (Homo sapiens, UniProt Q9NZQ7) (assay: HTRF Assay (PD-1/PD-L1 interaction)). Conditions: PD-L1 His 6 nM, PD-1 Fc 6 nM.
Format: binding
Procedure, shortened: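 Compounds tested from 20 μM down to 0.001 μM (3-fold) against 6 nM PD-L1 His and 6 nM PD-1 Fc, 15 min room temperature incubation. Detection after 1 h at room temperature with Tb cryptate anti-6HIS and XL665 anti-human IgG reagents (mixture at 0.35 nM and 6.7 nM), HTRF signal.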

Chain of PD-L1 His protein / PD-1 Fc protein (Q9NZQ7 19-238 limits assumed): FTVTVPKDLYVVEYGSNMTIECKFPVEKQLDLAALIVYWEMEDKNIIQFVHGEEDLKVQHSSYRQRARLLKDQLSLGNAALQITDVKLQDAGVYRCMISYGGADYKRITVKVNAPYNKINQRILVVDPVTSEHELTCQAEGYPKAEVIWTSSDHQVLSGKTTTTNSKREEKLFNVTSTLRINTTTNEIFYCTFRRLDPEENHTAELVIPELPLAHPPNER

| SMILES | IC50 |
| --- | --- |
| COc1nc(-c2cccc(-c3cccc(-c4ccc5c(=O)nc(CNC[C@@H]6CCC(=O)N6)[nH]c5c4)c3Cl)c2Cl)ccc1CNC[C@@H]1CCC(=O)N1 [Example 421, 7-(2,2′-Dichloro-3′-(6-methoxy-5-(((((S)-5-oxopyrrolidin-2-yl)methyl)amino)methyl)pyridin-2-yl)-[1,1′-biphenyl]-3-yl)-2-(((((S)-5-oxopyrrolidin-2-yl)methyl)amino)methyl)quinazolin-4(1H)-one] | 14 nM |
| COc1nc(-c2cccc(-c3cccc(-c4ccc5nc(CNC[C@@H]6CCC(=O)N6)ncc5c4)c3Cl)c2Cl)ccc1CNC[C@@H]1CCC(=O)N1 [Example 422, (S)-5-((((6-(2,2′-Dichloro-3′-(2-(((((S)-5-oxopyrrolidin-2-yl)methyl)amino)methyl)quinazolin-6-yl)-[1,1′-biphenyl]-3-yl)-2-methoxypyridin-3-yl)methyl)amino)methyl)pyrrolidin-2-one] | 4.1 nM |
| COc1cc(-c2cccc(-c3cccc(-c4ccc(CNC[C@@H]5CCC(=O)N5)c(OC)n4)c3Cl)c2Cl)cc2c1CCN(C[C@@H]1CCC(=O)N1)C2 [Example 424, (S)-5-((((6-(2,2′-Dichloro-3′-(5-methoxy-2-(((S)-5-oxopyrrolidin-2-yl)methyl)-1,2,3,4-tetrahydroisoquinolin-7-yl)-[1,1′-biphenyl]-3-yl)-2-methoxypyridin-3-yl)methyl)amino)methyl)pyrrolidin-2-one] | 27 nM |
| COc1nc(-c2cccc(-c3cccc(-c4cc(F)c5c(c4)CCN(C[C@@H]4CCC(=O)N4)C5)c3Cl)c2Cl)ccc1CNC[C@@H]1CCC(=O)N1 [Example 425, (S)-5-((6-(2,2′-Dichloro-3′-(6-methoxy-5-(((((S)-5-oxopyrrolidin-2-yl)methyl)-amino)-methyl)-pyridin-2-yl)-[1,1′-biphenyl]-3-yl)-8-fluoro-3,4-dihydroisoquinolin-2(1H)-yl)methyl)pyrrolidin-2-one] | 8.3 nM |
| COc1nc(-c2cccc(-c3cccc(-c4ccc5c(n4)CCN(C[C@@H]4CCC(=O)N4)C5)c3Cl)c2Cl)ccc1CNC[C@@H]1CCC(=O)N1 [Example 426, (S)-5-((((6-(2,2′-Dichloro-3′-(6-(((S)-5-oxopyrrolidin-2-yl)-methyl)-5,6,7,8-tetrahydro-1,6-naphthyridin-2-yl)-[1,1′-biphenyl]-3-yl)-2-methoxypyridin-3-yl)-methyl)-amino)-methyl)pyrrolidin-2-one] | 0.1 nM |
| COc1nc(-c2cccc(-c3cccc(-c4ccc5c(c4Cl)CN(C[C@@H]4CCC(=O)N4)CC5)c3Cl)c2Cl)ccc1CNC[C@@H]1CCC(=O)N1 [Example 427, (S)-5-((8-Chloro-7-(2,2′-dichloro-3′-(6-methoxy-5-(((((S)-5-oxopyrrolidin-2-yl)methyl)-amino)-methyl)-pyridin-2-yl)-[1,1′-biphenyl]-3-yl)-3,4-dihydroisoquinolin-2(1H)-yl)methyl)pyrrolidin-2-one] | 5.2 nM |
| COc1nc(-c2cccc(-c3cccc(-c4ccc5c(c4F)CN(C[C@@H]4CCC(=O)N4)CC5)c3Cl)c2Cl)ccc1CNC[C@@H]1CCC(=O)N1 [Example 428, (S)-5-((7-(2,2′-Dichloro-3′-(6-methoxy-5-(((((S)-5-oxopyrrolidin-2-yl)methyl)-amino)methyl)-pyridin-2-yl)-[1,1′-biphenyl]-3-yl)-8-fluoro-3,4-dihydroisoquinolin-2(1H)-yl)methyl)-pyrrolidin-2-one] | 140 nM |
| O=C1CC[C@@H](CNCc2nc3cc(-c4cccc(-c5cccc(-c6ccn7c(=O)c(CNC[C@@H]8CCC(=O)N8)cnc7c6)c5Cl)c4Cl)ccn3c2Cl)N1 [Example 429, 8-[2-Chloro-3-[2-chloro-3-[3-chloro-2-[[[(2S)-5-oxopyrrolidin-2-yl]methylamino]methyl]imidazo[1,2-a]pyridin-7-yl]phenyl]phenyl]-3-[[[(2S)-5-oxopyrrolidin-2-yl]methylamino]methyl]pyrido[1,2-a]pyrimidin-4-one] | 240 nM |
| O=C1CC[C@@H](CNCc2nc3cc(-c4cccc(-c5cccc(-c6ccn7c(Cl)c(CNC[C@@H]8CCC(=O)N8)nc7c6)c5Cl)c4Cl)ccn3c2Cl)N1 [Example 430, (5S)-5-[[[3-Chloro-7-[2-chloro-3-[2-chloro-3-[3-chloro-2-[[[(2S)-5-oxopyrrolidin-2-yl]methylamino]methyl]imidazo[1,2-a]pyridin-7-yl]phenyl]phenyl]imidazo[1,2-a]pyridin-2-yl]methylamino]methyl]pyrrolidin-2-one] | 170 nM |
| COc1cc(-c2cccc(-c3cccc(-c4ccn5c(=O)c(CNC[C@@H]6CCC(=O)N6)cnc5c4)c3Cl)c2Cl)nc(Cl)c1CNC[C@@H]1CCC(=O)N1 [Example 431, 8-(2,2′-Dichloro-3′-(6-chloro-4-methoxy-5-(((((S)-5-oxopyrrolidin-2-yl)methyl)-amino)-methyl)pyridin-2-yl)-[1,1′-biphenyl]-3-yl)-3-(((((S)-5-oxopyrrolidin-2-yl)methyl)amino)methyl)-4H-pyrido[1,2-a]pyrimidin-4-one] | 180 nM |
| COc1nc(-c2cccc(-c3cccc(-c4cnc5c(c4)CCCC5NC[C@@H]4CCC(=O)N4)c3Cl)c2Cl)ccc1CNC[C@@H]1CCC(=O)N1 (stereo partly drawn) [Example 432, (5S)-5-(((3-(2,2′-Dichloro-3′-(6-methoxy-5-(((((S)-5-oxopyrrolidin-2-yl)-methyl)-amino)methyl)-pyridin-2-yl)-[1,1′-biphenyl]-3-yl)-5,6,7,8-tetrahydroquinolin-8-yl)amino)-methyl)-pyrrolidin-2-one] | 270 nM |
| COc1nc(-c2cccc(-c3cccc(-c4ccc5c(n4)CCC[C@@H]5NC[C@@H]4CCC(=O)N4)c3Cl)c2Cl)ccc1CNC[C@@H]1CCC(=O)N1 [Example 435, (S)-5-((((6-(2,2′-Dichloro-3′-((S)-5-((((S)-5-oxopyrrolidin-2-yl)methyl)amino)-5,6,7,8-tetrahydroquinolin-2-yl)-[1,1′-biphenyl]-3-yl)-2-methoxypyridin-3-yl)methyl)amino)methyl)pyrrolidin-2-one] | 23 nM |
| COc1nc(-c2cccc(-c3cccc(-c4cc5c(=O)n(C)c(CN(C)C[C@H](C)O)nn5c4)c3Cl)c2Cl)ccc1CNC[C@@H]1CCC(=O)N1 [Example 436, 6-(2,2′-dichloro-3′-(6-methoxy-5-(((((S)-5-oxopyrrolidin-2-yl)methyl)amino)methyl)pyridin-2-yl)-[1,1′-biphenyl]-3-yl)-2-((((S)-2-hydroxypropyl)(methyl)amino)methyl)-3-methylpyrrolo[2,1-f][1,2,4]triazin-4(3H)-one] | 26 nM |
| COc1nc(-c2cccc(-c3cccc(-c4cc5c(=O)n(C)c(CNCCCF)nn5c4)c3Cl)c2Cl)ccc1CNC[C@@H]1CCC(=O)N1 [Example 437, (S)-6-(2,2′-Dichloro-3′-(6-methoxy-5-((((5-oxopyrrolidin-2-yl)methyl)amino)methyl)pyridin-2-yl)-[1,1′-biphenyl]-3-yl)-2-(((3-fluoropropyl)amino)methyl)-3-methylpyrrolo[2,1-f][1,2,4]triazin-4(3H)-one] | 52 nM |
| COc1nc(-c2cccc(-c3cccc(-c4ccc5nc(C(=O)NCCN)cn5n4)c3Cl)c2Cl)ccc1CNC[C@@H]1CCC(=O)N1 [Example 438, N-(2-Aminoethyl)-6-[2-chloro-3-[2-chloro-3-[6-methoxy-5-[[[(2S)-5-oxopyrrolidin-2-yl]methylamino]methyl]-2-pyridyl]phenyl]phenyl]imidazo[1,2-b]pyridazine-2-carboxamide] | 14 nM |
| COc1nc(-c2cccc(-c3cccc(-c4ccc5nc(C(=O)NC[C@H](C)N)cn5n4)c3Cl)c2Cl)ccc1CNC[C@@H]1CCC(=O)N1 [Example 439, N-[(2S)-2-Aminopropyl]-6-[2-chloro-3-[2-chloro-3-[6-methoxy-5-[[[(2S)-5-oxopyrrolidin-2-yl]methylamino]methyl]-2-pyridyl]phenyl]phenyl]imidazo[1,2-b]pyridazine-2-carboxamide] | 20 nM |
| COc1nc(-c2cccc(-c3cccc(-c4ccc5nc(C(=O)NCCc6c[nH]cn6)cn5n4)c3Cl)c2Cl)ccc1CNC[C@@H]1CCC(=O)N1 [Example 440, 6-[2-Chloro-3-[2-chloro-3-[6-methoxy-5-[[[(2S)-5-oxopyrrolidin-2-yl]methylamino]methyl]-2-pyridyl]phenyl]phenyl]-N-[2-(1H-imidazol-4-yl)ethyl]imidazo[1,2-b]pyridazine-2-carboxamide] | 27 nM |
| COc1nc(-c2cccc(-c3cccc(-c4ncc5c(n4)CCN(C[C@@H]4CCC(=O)N4)C5)c3Cl)c2Cl)ccc1CNC[C@@H]1CCC(=O)N1 [Example 443, (S)-5-((((6-(2,2′-Dichloro-3′-(6-(((S)-5-oxopyrrolidin-2-yl)methyl)-5,6,7,8-tetrahydropyrido[4,3-d]pyrimidin-2-yl)-[1,1′-biphenyl]-3-yl)-2-methoxypyridin-3-yl)methyl)amino)methyl)pyrrolidin-2-one] | 0.1 nM |
| COc1nc(-c2cccc(-c3cccc(-c4ccc5c(CNC[C@@H]6CCCO6)cn(C)c5n4)c3Cl)c2Cl)ccc1CNC[C@@H]1CCC(=O)N1 [Example 444, (5S)-5-[[[6-[2-Chloro-3-[2-chloro-3-[1-methyl-3-[[[(2S)-tetrahydrofuran-2-yl]methylamino]methyl]pyrrolo[2,3-b]pyridin-6-yl]phenyl]phenyl]-2-methoxy-3-pyridyl]methylamino]methyl]pyrrolidin-2-one] | 920 nM |
| COc1nc(-c2cccc(-c3cccc(-c4ccc5c(CNC[C@H](C)OC)cn(C)c5n4)c3Cl)c2Cl)ccc1CNC[C@@H]1CCC(=O)N1 [Example 445, (5S)-5-[[[6-[2-Chloro-3-[2-chloro-3-[3-[[[(2S)-2-methoxypropyl]amino]methyl]-1-methyl-pyrrolo[2,3-b]pyridin-6-yl]phenyl]phenyl]-2-methoxy-3-pyridyl]methylamino]methyl]pyrrolidin-2-one] | 460 nM |

Reference: US20230143612A1 (Arbutus Biopharma Corporation, priority 2020, published 2023)
